Laboratory results from patent US10300058B2, “Tyrosine kinase inhibitor and uses thereof” (Xuanzhu Pharma Co., Ltd., priority 2014, dated 2019).

Experiments:
wild-type EGFR (WT EGFR) = wild-type EGFR (WT EGFR) (Homo sapiens (Human), UniProt P00533); assay: Mobility Shift Assay, in vitro enzyme-inhibiting activity, wild-type EGFR; type: biochemical; conditions: Km ATP
Protocol: (§1) 1. Preparation of Reagents
(§2) 2. Preparation of a Compound Solution
(§3) (1) To the second well of a 96-well plate, 5 μL 10 mM compound (dissolved in DMSO) was added, and 95 μL 100% DMSO was added to prepare 100 μL 0.5 mM compound.
(§4) (2) To other wells, 60 μL 100% DMSO was added. 20 μL compound from the second well was added to the third well, and 4-fold dilution was further performed to get 10 diluted concentrations.
(§5) (3) To the first well and the twelfth well of the 96-well plate, 100 μL 100% DMSO was separately added, and the two wells were used as control wells.
(§6) (4) 10 μL from each well of the 96-well plate was added to another 96-well plate, and 90 μL 1-fold kinase buffer was added.
(§7) (5) 5 μL from the 96-well plate was added to another 384-well plate, for example, transferred from A1 well of the 96-well plate to A1 and A2 wells of the 384-well plate, and transferred from A2 well of the 96-well plate to A3 and A4 wells of the 384-well plate, and so on.
(§8) To 384-well plate, 10 μL 2.5-fold enzyme solution was added, and incubated at room temperature for 10 min.
(§9) (5) Kinase reaction and stop
(§10) After incubation at 28° C. for a period of time (depending on kinase), 25 μL stop solution was added.
(§11) 4. Data on percent conversion was read by Caliper.
(§12) (1) Data on enzyme activity was obtained by Caliper program;
(§13) (2) Inhibition rate of enzyme activity was calculated from the data on enzyme activity by the following formula: Inhibition rate(%)=(maximal value−the measured value of a test compound)/(maximal value-minimal value)×100,
(§14) wherein, the maximal value represents the measured value of DMSO control; and the minimal value represents the measured value of blank control.
(§15) (3) Calculation of IC50 value by XLFit excel.

EGFR T790M = EGFR T790M (Homo sapiens (Human), UniProt P00533, T790M); assay: Mobility Shift Assay, in vitro enzyme-inhibiting activity, EGFR T790M; type: biochemical; conditions: for IC50: Km ATP; for Selectivity (WT/T790M): ratio of IC50
Sequence of EGFR T790M (P00533 25-1210 T790M): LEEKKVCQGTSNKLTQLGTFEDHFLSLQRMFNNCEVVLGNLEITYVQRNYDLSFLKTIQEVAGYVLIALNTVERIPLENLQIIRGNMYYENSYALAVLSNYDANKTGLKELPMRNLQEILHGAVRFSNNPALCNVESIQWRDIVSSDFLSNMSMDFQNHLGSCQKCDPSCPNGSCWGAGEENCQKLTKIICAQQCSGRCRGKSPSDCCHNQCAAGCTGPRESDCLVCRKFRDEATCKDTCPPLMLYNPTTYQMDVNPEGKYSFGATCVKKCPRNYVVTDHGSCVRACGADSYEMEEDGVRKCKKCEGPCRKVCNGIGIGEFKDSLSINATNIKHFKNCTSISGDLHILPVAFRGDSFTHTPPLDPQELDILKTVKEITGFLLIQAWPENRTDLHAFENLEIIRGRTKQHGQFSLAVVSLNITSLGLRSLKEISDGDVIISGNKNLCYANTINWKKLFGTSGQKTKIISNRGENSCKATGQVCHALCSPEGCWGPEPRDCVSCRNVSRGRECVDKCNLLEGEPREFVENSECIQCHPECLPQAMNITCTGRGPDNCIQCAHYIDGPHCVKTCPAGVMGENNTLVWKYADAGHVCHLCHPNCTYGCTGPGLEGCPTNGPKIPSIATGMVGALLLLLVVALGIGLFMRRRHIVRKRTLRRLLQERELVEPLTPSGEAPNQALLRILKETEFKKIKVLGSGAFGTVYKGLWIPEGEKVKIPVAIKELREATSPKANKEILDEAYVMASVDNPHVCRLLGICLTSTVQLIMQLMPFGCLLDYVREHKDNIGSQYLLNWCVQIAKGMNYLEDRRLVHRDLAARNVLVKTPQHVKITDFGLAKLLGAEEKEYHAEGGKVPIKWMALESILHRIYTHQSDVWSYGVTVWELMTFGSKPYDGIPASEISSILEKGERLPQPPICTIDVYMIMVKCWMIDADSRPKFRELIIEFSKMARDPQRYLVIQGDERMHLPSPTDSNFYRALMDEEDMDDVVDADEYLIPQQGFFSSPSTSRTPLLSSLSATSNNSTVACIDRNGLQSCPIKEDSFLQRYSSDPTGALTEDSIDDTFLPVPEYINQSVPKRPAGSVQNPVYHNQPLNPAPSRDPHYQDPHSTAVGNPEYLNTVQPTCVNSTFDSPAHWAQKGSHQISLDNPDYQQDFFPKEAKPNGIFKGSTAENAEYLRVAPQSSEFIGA
Protocol: as §1, §2, §3, §4, §5, §6, §7, §8, §9, §10, §11, §12, §13, §14, §15

EGFR (d746-750) = EGFR (d746-750) (Homo sapiens (Human), UniProt P00533, DEL746-750); assay: Mobility Shift Assay, in vitro enzyme-inhibiting activity, EGFR (d746-750); type: biochemical; conditions: for IC50: Km ATP; for Selectivity WT/d746-750: ratio of IC50
Protocol: as §1, §2, §3, §4, §5, §6, §7, §8, §9, §10, §11, §12, §13, §14, §15

EGFR L858R = EGFR L858R (Homo sapiens (Human), UniProt P00533, L858R); assay: Mobility Shift Assay, in vitro enzyme-inhibiting activity, EGFR L858R; type: biochemical; conditions: for IC50: Km ATP; for Selectivity WT/L858R: ratio of IC50
Sequence of EGFR L858R (P00533 25-1210 L858R): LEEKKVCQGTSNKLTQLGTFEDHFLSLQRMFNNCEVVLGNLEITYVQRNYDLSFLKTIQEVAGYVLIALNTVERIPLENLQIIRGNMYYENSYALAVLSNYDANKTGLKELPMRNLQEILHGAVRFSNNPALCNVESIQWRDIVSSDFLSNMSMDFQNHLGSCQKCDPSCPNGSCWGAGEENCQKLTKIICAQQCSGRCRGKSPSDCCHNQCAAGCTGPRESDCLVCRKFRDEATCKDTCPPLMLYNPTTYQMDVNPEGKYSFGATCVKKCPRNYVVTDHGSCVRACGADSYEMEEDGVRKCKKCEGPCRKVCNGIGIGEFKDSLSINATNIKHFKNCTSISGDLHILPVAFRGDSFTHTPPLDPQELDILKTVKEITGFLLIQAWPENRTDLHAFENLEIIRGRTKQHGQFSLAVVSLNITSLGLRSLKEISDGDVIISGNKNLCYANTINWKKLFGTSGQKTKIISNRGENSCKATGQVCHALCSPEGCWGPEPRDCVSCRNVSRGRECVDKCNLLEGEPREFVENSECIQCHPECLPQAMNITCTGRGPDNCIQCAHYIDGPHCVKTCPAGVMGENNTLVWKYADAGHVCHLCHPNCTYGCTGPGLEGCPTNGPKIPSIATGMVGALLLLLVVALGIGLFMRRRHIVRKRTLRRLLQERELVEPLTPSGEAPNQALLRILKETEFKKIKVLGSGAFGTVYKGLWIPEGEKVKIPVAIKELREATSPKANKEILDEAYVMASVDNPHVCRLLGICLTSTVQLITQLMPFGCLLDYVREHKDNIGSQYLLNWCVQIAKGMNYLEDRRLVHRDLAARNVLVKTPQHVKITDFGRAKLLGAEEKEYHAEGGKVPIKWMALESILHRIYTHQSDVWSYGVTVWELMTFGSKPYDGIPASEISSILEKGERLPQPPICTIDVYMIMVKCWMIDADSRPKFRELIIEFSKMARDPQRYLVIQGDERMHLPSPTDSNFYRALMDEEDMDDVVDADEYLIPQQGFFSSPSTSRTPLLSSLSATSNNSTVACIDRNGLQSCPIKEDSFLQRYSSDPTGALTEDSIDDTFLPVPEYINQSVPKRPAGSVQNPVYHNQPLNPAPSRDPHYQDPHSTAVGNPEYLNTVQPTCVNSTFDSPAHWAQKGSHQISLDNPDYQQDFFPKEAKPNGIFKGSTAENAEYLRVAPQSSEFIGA
Protocol: as §1, §2, §3, §4, §5, §6, §7, §8, §9, §10, §11, §12, §13, §14, §15

EGFR T790M-L858R = EGFR T790M-L858R (Homo sapiens (Human), UniProt P00533, L858R/T790M); assay: Mobility Shift Assay, in vitro enzyme-inhibiting activity, EGFR T790M-L858R; type: biochemical; conditions: for IC50: Km ATP; for Selectivity WT/T790M-L858R: ratio of IC50
Sequence of EGFR T790M-L858R (P00533 25-1210 T790M/L858R): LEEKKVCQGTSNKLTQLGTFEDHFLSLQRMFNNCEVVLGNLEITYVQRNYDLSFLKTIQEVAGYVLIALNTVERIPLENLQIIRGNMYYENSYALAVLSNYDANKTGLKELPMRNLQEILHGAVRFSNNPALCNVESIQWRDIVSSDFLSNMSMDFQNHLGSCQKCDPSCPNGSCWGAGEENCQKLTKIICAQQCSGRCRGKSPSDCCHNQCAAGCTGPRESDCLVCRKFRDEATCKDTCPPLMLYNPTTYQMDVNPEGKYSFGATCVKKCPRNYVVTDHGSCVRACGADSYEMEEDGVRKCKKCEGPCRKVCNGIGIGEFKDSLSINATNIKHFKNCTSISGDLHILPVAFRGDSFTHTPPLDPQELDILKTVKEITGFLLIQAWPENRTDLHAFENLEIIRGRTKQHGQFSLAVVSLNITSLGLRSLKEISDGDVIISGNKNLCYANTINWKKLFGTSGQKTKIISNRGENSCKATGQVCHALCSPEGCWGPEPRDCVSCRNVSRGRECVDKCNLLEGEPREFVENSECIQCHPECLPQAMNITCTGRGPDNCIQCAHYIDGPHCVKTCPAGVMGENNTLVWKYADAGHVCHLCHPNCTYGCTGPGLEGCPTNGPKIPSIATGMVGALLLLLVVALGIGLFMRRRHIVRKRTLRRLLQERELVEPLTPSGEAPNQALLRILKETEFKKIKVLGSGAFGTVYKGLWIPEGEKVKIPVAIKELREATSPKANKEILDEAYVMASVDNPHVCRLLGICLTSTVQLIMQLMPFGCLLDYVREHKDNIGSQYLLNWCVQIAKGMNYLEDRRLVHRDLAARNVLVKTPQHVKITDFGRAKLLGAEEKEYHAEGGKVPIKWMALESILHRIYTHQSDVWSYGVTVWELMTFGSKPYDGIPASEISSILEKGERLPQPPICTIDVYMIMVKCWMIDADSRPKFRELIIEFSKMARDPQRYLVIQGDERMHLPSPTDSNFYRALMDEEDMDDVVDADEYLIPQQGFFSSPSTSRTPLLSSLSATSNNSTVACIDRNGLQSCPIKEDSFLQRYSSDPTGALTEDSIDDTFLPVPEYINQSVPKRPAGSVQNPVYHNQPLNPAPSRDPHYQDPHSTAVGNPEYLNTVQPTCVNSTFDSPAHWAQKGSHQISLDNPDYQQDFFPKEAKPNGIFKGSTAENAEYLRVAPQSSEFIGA
Protocol: as §1, §2, §3, §4, §5, §6, §7, §8, §9, §10, §11, §12, §13, §14, §15

[1] = tested on: A431 cell (wild-type EGFR gene); assay: In vitro cytologic activity, Celltiter-Glo, A431 cells; type: cell-based; conditions: Homo sapiens, A-431, 72 h
Protocol: (§16) 1.1 Preparation of Cell Suspension
(§17) Culture medium was removed from culture bottle;
(§18) PBS was added to wash the cells; • pancreatin was added for digestion, and the cells were collected by centrifugation; • the cells were resuspended in a culture medium containing 10% fetal bovine serum, counted and adjusted to a concentration of 2×10^4/mL or 3×10^4/mL (cell viability must be greater than 90%); • the cell suspension was added to a 96-well plate, at 100 μL for each well, i.e., 2000/well for H1975 cell; 3000/well for A431 cell; and • the cells were cultured at 37° C. in 5% CO2 incubator overnight.
(§19) Dilution of a compound in DMSO (or water for injection) • (1) The compound was 5-fold diluted with DMSO from 10 mM to 2 mM, and then 4-fold diluted from 2 mM, to get 10 concentrations; • High control (HC, control without compound inhibition): 0.5% DMSO; • Low control (LC, control with compound inhibition): 1000 nM.
(§20) i. To each well, 99 μL growth medium containing 10% FBS was added, and then 1 μL diluted compound was added, the total volume of the well was […], and the final concentration of the compound was measured.
(§21) The test plate was left at room temperature, and equilibrated for 30 min. 80 μL culture medium was discarded. 60 μL CTG reagent (Celltiter-Glo kit) was added, and shaked for 2 min in a fast shaker, and was placed at room temperature for 10 min. The values were read by Envision instrument.

[2] = tested on: H1975 cell (EGFR-T790M/L858R double mutation); assay: In vitro cytologic activity, Celltiter-Glo, H1975 cells; type: cell-based, human; conditions: for IC50: Homo sapiens, NCI-H1975, 72 h, 72 h, Celltiter-Glo; for Selectivity (A431/H1975): ratio of IC50
Protocol: as §16, §17, §18, §19, §20, §21

Sequence of wild-type EGFR (WT EGFR) (P00533 25-1210): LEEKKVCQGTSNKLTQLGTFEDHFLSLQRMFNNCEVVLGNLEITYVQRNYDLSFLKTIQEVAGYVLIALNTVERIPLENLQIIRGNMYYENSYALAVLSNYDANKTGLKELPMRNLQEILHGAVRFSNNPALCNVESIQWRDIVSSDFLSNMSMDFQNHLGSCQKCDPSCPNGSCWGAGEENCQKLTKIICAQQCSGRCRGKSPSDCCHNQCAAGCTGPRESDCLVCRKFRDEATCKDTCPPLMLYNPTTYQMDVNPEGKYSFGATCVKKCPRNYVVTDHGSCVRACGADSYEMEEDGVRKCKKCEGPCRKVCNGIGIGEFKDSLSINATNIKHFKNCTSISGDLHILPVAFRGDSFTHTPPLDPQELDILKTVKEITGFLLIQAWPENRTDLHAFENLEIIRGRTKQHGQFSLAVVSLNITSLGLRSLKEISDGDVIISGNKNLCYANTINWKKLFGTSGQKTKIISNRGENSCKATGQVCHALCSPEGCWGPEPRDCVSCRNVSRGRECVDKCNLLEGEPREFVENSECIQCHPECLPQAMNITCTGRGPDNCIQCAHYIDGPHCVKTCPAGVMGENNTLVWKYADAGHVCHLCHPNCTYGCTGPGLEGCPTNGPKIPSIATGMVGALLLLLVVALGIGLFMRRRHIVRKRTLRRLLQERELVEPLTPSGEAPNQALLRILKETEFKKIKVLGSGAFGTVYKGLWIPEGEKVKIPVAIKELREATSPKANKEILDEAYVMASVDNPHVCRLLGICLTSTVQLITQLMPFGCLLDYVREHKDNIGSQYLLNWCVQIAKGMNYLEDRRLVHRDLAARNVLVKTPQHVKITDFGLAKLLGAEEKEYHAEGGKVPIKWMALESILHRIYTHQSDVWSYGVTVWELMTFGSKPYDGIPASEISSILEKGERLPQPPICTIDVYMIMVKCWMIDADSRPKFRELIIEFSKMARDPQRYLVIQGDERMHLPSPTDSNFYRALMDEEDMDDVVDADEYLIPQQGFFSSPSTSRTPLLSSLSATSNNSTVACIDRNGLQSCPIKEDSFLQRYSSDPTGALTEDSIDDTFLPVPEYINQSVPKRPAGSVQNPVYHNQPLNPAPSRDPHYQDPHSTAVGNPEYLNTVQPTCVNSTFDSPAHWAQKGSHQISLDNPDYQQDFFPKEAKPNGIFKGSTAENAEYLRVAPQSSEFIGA

Structure (SMILES)	IC50 (wild-type EGFR (WT EGFR); Table 7) [nM]	IC50 (EGFR T790M; Table 7) [nM]	Selectivity (WT/T790M) (EGFR T790M; Table 7)	IC50 (EGFR (d746-750); Table 7) [nM]	Selectivity WT/d746-750 (EGFR (d746-750); Table 7)	IC50 (EGFR L858R; Table 7) [nM]	Selectivity WT/L858R (EGFR L858R; Table 7)	IC50 (EGFR T790M-L858R; Table 7) [nM]	Selectivity WT/T790M-L858R (EGFR T790M-L858R; Table 7)	IC50 (wild-type EGFR (WT EGFR); Table 4, unit inferred) [nM]	IC50 (EGFR T790M; Table 4, unit inferred) [nM]	Selectivity (WT/T790M) (EGFR T790M; Table 4)	also measured
C=CC(=O)Nc1cccc(Nc2nc(Nc3ccc(C4=CCN(C(C)=O)CC4)cc3OC)ncc2C(F)(F)F)c1 [Compound 3, N-(3-((2-((4-(1-acetyl-1,2,3,6-tetrahydropyridin-4-yl)-2-methoxyphenyl)amino)-5-(trifluoromethyl)pyrimidin-4-yl)amino)phenyl)acrylamide]	–	–	–	–	–	–	–	–	–	–	–	–	IC50 (wild-type EGFR (WT EGFR); Table 1): 699 nM; IC50 (wild-type EGFR (WT EGFR); Table 5): 733 nM; IC50 (EGFR T790M; Table 1): 4.7 nM; Selectivity (WT/T790M) (EGFR T790M; Table 1): 148.7; IC50 (EGFR (d746-750); Table 5): 51.4 nM; Selectivity WT/d746-750 (EGFR (d746-750); Table 5): 14.2; IC50 (EGFR L858R; Table 5): 154 nM; Selectivity WT/L858R (EGFR L858R; Table 5): 4.8; IC50 (EGFR T790M-L858R; Table 5): 6 nM; Selectivity WT/T790M-L858R (EGFR T790M-L858R; Table 5): 122.9
C=CC(=O)Nc1cccc(Nc2nc(Nc3ccc(C4CCN(C(C)=O)CC4)cc3OC)ncc2C(F)(F)F)n1 [Compound 4, N-(6-((2-((4-(1-acetylpiperidin-4-yl)-2-methoxyphenyl)amino)-5-(trifluoromethyl)pyrimidin-4-yl)amino)pyridin-2-yl)acrylamide]	423	7.2	58.8	40	10.6	82	5.2	5.2	81.3	–	–	–	IC50 (wild-type EGFR (WT EGFR); Table 3): 423 nM; IC50 (EGFR T790M; Table 3): 7.2 nM; Selectivity (WT/T790M) (EGFR T790M; Table 3): 58.8
C=CC(=O)Nc1cccc(Nc2nc(Nc3ccc(N4CC5CCC(C4)N5C(C)=O)cc3OC)ncc2C(F)(F)F)c1 [Compound 7, N-(3-((2-((4-(8-acetyl-3,8-diazabicyclo[3.2.1]octan-3-yl)-2-methoxyphenyl)amino)-5-(trifluoromethyl)pyrimidin-4-yl)amino)phenyl)acrylamide]	–	–	–	–	–	–	–	–	–	332	6.2	53.5	–
C=CC(=O)Nc1cccc(Nc2nc(Nc3ccc(N4C[C@H]5CN(C(C)=O)C[C@H]5C4)cc3OC)ncc2C(F)(F)F)c1 [Compound 9-1, N-(3-((2-((4-((cis)-5-acetylhexahydropyrrolo[3,4-c]pyrrol-2(1H)-yl)-2-methoxyphenyl)amino)-5-(trifluoromethyl)pyrimidin-4-yl)amino)phenyl)acrylamide]	560	9	62.2	92.7	6.0	119	4.7	12.6	44.5	–	–	–	–
C=CC(=O)Nc1cccc(Nc2nc(Nc3cc4c(cc3OC)CN(C(C)=O)CC4)ncc2C(F)(F)F)c1 [Compound 11, N-(3-((2-((2-acetyl-7-methoxy-1,2,3,4-tetrahydroisoquinolin-6-yl)amino)-5-(trifluoromethyl)pyrimidin-4-yl)amino)phenyl)acrylamide]	–	–	–	–	–	–	–	–	–	–	–	–	IC50 (wild-type EGFR (WT EGFR); Table 2): 640 nM; IC50 (EGFR T790M; Table 2): 13 nM; Selectivity (WT/T790M) (EGFR T790M; Table 2): 49.2; IC50 ([1]; Table 9): 1.77 µM; IC50 ([2]; Table 9): 179 nM; Selectivity (A431/H1975) ([2]; Table 9): 9.9
C=CC(=O)Nc1cccc(Nc2nc(Nc3ccc4c(c3OC)CN(C(C)=O)CC4)ncc2C(F)(F)F)c1 [Compound 17, N-(3-((2-((2-acetyl-8-methoxy-1,2,3,4-tetrahydroisoquinoline-7-yl)amino)-5-(trifluoromethyl)pyrimidin-4-yl)amino)phenyl)acrylamide]	–	–	–	–	–	–	–	–	–	1370	16	85.6	–
C=CC(=O)Nc1cccc(Nc2nc(Nc3ccc(C4CCNC(=O)C4)cc3OC)ncc2C(F)(F)F)c1 (stereo not shown) [Compound 22, N-(3-((2-((2-methoxy-4-(2-oxopiperidin-4-yl)phenyl)amino)-5-(trifluoromethyl)pyrimidin-4-yl)amino)phenyl)acrylamide]	181	2.7	67.2	28.3	6.4	28.2	6.4	4.06	44.6	–	–	–	–
C=CC(=O)Nc1cccc(Nc2nc(Nc3ccc(C4CCN(CCF)C(=O)C4)cc3OC)ncc2C(F)(F)F)c1 (stereo not shown) [Compound 23, N-(3-((2-((4-(1-(2-fluoroethyl)-2-oxopiperidin-4-yl)-2-methoxyphenyl)amino)-5-(trifluoromethyl)pyrimidin-4-yl)amino)phenyl)acrylamide]	–	–	–	–	–	–	–	–	–	294	3.9	75.4	–
C=CC(=O)Nc1cccc(Nc2nc(Nc3ccc(C4CCN(C(=O)CC)CC4)cc3OC)ncc2C(F)(F)F)c1 [Compound 24, N-(3-((2-((2-methoxy-4-(1-propionylpiperidin-4-yl)phenyl)amino)-5-(trifluoromethyl)pyrimidin-4-yl)amino)phenyl)acrylamide]	666	9.1	73.2	91.7	7.3	109	6.1	10.2	65.4	–	–	–	–
C=CC(=O)Nc1cccc(Nc2nc(Nc3ccc(OC)c4c3CCN(C(C)=O)C4)ncc2C(F)(F)F)c1 [Compound 35, N-(3-((2-((2-acetyl-8-methoxy-1,2,3,4-tetrahydroisoquinoline-5-yl)amino)-5-(trifluoromethyl)pyrimidin-4-yl)amino)phenyl)acrylamide]	–	–	–	–	–	–	–	–	–	–	–	–	IC50 ([1]; Table 10, unit inferred): 3.6 µM; IC50 ([2]; Table 10, unit inferred): 266 nM; Selectivity (A431/H1975) ([2]; Table 10): 13.5
C=CC(=O)Nc1cccc(Nc2nc(Nc3ccc(OC)c4c3CN(C(C)=O)C4)ncc2C(F)(F)F)c1 [Compound 36, N-(3-((2-((2-acetyl-7-methoxyisoindolin-4-yl)amino)-5-(trifluoromethyl)pyrimidin-4-yl)amino)phenyl)acrylamide]	–	–	–	–	–	–	–	–	–	–	–	–	IC50 ([1]; Table 10, unit inferred): 7 µM; IC50 ([2]; Table 10, unit inferred): 326 nM; Selectivity (A431/H1975) ([2]; Table 10): 21.5
C=CC(=O)Nc1cccc(Nc2nc(Nc3cccc4c3CCN(C(C)=O)C4)ncc2C(F)(F)F)c1 [Compound 37, N-(3-((2-((2-acetyl-1,2,3,4-tetrahydroisoquinoline-5-yl)amino)-5-(trifluoromethyl)pyrimidin-4-yl)amino)phenyl)acrylamide]	–	–	–	–	–	–	–	–	–	1280	9.9	129.7	–
